Calls of active or inactive are those of the source. The calls are words filed in the database; no cut-off is given here.
Test system: not listed separately
Experiment: Antiproliferative activity against H661 cells after 48 hrs
Type: functional, cell-based
Conditions: Homo sapiens, NCI-H661, 48 h
With `CC1(CCCCC(=O)NO)Cc2ccccc2C1=O` (centres undefined) the IC50 was > 25 µM. Compound `CC(/C=C/C(=O)NO)=C\[C@@H](C)C(=O)c1ccc(N(C)C)cc1` [TRICHOSTATIN] has an IC50 of 0.085 µM. Work on `CC1(CCCCCCC(=O)NO)Cc2ccccc2C1=O` (centres undefined) yielded an IC50 of 20 µM.

Test system: NCI-H661
Experiment: Antiproliferative activity against H661 cells at 25 uM after 48 hrs
Type: functional, cell-based
Conditions: Homo sapiens
In the case of `CC1(Cc2cccc(C(=O)Nc3ccccc3N)c2)Cc2ccccc2C1=O` (centres undefined), the Activity is reported as “inactive”. With `CC1(Cc2nc(C(=O)NO)cs2)Cc2ccccc2C1=O` (centres undefined) the Activity was “inactive”. In the case of `CC1(Cc2nc(C(=O)Nc3ccccc3N)cs2)Cc2ccccc2C1=O` (centres undefined), the Activity is reported as “inactive”. For `CN(C)c1ccc2c(c1)CC(C)(CCCCC(=O)NO)C2=O` (centres undefined), the Activity was “inactive”. For `CC1(CCCCCC(=O)NO)Cc2ccccc2C1=O` (centres undefined), the Activity was “inactive”. For `CC1(Cc2cccc(C(=O)NO)c2)Cc2ccccc2C1=O` (centres undefined), the Activity was “inactive”.

Source: ChEMBL document CHEMBL1137545, “Antiproliferative activities of a library of hybrids between indanones and HDAC inhibitor SAHA and MS-275 analogues” (Bioorg Med Chem Lett, 2007)
